Reference: US9896445B2, “Heterocyclic inhibitors of ERK1 and ERK2 and their use in the treatment of cancer” (Asana Biosciences, LLC, priority 2015, dated 2018)

Legend:
ERK2 = target: T1, ERK2 (Homo sapiens, UniProt P28482); test: ERK2 HTRF (biochemical) assay
T1 construct: purchased Jubilant Biosys
Procedure, shortened: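 Readout was time-resolved FRET between europium anti-phospho-MBP and streptavidin-APC after a 60-min room-temperature kinase step. That step used ERK2 (25 nM in enzyme mix), biotinylated MBP peptide (1 uM) and ATP (24 uM) from the substrate mix, in pH 7.5 Tris buffer.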

ERK1 = target: T2, ERK1 (Homo sapiens, UniProt P27361); test: ERK1 HTRF (biochemical) assay
T2 construct: purchased Jubilant Biosys
T2 sequence (P27361 whole entry): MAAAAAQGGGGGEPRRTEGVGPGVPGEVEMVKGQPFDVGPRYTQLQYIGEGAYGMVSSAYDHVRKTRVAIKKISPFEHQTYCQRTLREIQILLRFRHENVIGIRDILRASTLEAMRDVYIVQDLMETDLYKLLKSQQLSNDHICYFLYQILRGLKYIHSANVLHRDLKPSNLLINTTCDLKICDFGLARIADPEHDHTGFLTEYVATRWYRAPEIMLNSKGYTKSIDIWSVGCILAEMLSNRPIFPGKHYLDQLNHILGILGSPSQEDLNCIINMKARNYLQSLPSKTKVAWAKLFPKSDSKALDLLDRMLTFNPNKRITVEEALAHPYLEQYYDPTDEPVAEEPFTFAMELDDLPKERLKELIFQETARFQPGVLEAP
Description: ERK1 and ERK2 HTRF (Biochemical) Assays
These assays employed a homogeneous time resolved fluorescence (HTRF) technique. […] The plate was incubated at room temperature for 60 min with shaking. […] The IC50 values (half maximal inhibitory concentration values) were subsequently determined using a sigmoidal dose-response curve (variable slope) in GraphPad Prism® 5 software.

T1 sequence (P28482 whole entry): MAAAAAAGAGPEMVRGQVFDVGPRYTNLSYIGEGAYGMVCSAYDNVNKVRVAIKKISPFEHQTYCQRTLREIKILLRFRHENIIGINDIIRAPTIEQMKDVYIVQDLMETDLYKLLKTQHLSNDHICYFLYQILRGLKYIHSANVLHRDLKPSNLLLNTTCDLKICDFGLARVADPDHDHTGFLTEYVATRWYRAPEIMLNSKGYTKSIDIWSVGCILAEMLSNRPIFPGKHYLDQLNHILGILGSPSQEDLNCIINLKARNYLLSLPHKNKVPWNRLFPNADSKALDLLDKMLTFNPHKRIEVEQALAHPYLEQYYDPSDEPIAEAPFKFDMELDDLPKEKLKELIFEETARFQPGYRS

Compound `Cc1cnc(Nc2ccc(F)cc2)nc1-n1ccc(C(=O)N[C@H](CO)c2ccc(F)c(Cl)c2)c1` [Compound 125, (S)-N-(1-(3-chloro-4-fluorophenyl)-2-hydroxyethyl)-1-(2-((4-fluorophenyl)-amino)-5-methyl-pyrimidin-4-yl)-1H-pyrrole-3-carboxamide] has an IC50 (ERK2; HTRF) of no more than 50 nM and an IC50 (ERK1; HTRF) of less than 50 nM.
Compound `Cc1cnc(NC2CCOCC2)nc1-n1cnc(C(=O)N[C@H](CNCC(C)(C)C)c2cccc(Cl)c2)c1` [Example 337, (S)-N-(1-(3-chlorophenyl)-2-(neopentylamino)-ethyl)-1-(5-methyl-2-((tetrahydro-2H-pyran-4-yl)amino)-pyrimidin-4-yl)-1H-imidazole-4-carboxamide] has an IC50 (ERK2; HTRF biochemical assay) of no more than 50 nM and an IC50 (ERK1; HTRF biochemical assay) of less than 50 nM.
For `Cc1cnc(NC2CCOCC2)nc1-n1cnc(C(=O)NC(CN)c2ccc(Cl)s2)c1` (centres unmarked) [Example 274, N-(2-amino-1-(5-chlorothiophen-2-yl)ethyl)-1-(5-methyl-2-((tetrahydro-2H-pyran-4-yl)amino)-pyrimidin-4-yl)-1H-imidazole-4-carboxamide], the IC50 (ERK2; HTRF) was no more than 50 nM and the IC50 (ERK1; HTRF) was less than 50 nM.
`CC(=O)NCC(NC(=O)c1ccn(-c2cc(Nc3ccc(F)cc3)ncc2C)c1)c1ccccc1` (centres unmarked) [Compound 135, N-(2-acetamido-1-phenylethyl)-1-(2-((4-fluorophenyl)-amino)-5-methyl-pyridin-4-yl)-1H-pyrrole-3-carboxamide] showed an IC50 (ERK2; HTRF) of no more than 50 nM and an IC50 (ERK1; HTRF) of less than 50 nM.
In the case of `CNC(=O)c1ccc(Nc2ncc(C)c(-n3ccc(C(=O)NC(CO)c4cccc(Cl)c4)c3)n2)cc1` (centres unmarked) [Compound 196, N-(1-(3-chloro-phenyl)-2-hydroxy-ethyl)-1-(5-methyl-2-((4-(methyl-carbamoyl)phenyl)amino)pyrimidin-4-yl)-1H-pyrrole-3-carboxamide], the IC50 (ERK2; HTRF) is reported as no more than 50 nM and the IC50 (ERK1; HTRF) is reported as less than 50 nM.
In the case of `Cc1cnc(N[C@H]2CCOC2)nc1-n1cnc(C(=O)NCc2cccc(Cl)c2)c1` [Example 318, (S)-N-(3-chloro-benzyl)-1-(5-methyl-2-((tetrahydrofuran-3-yl)amino)-pyrimidin-4-yl)-1H-imidazole-4-carboxamide], the IC50 (ERK2; HTRF biochemical assay) is reported as no more than 50 nM and the IC50 (ERK1; HTRF biochemical assay) is reported as less than 50 nM.
In the case of `Cc1cnc(Nc2cccnc2)cc1-n1ccc(C(=O)NC(CO)c2ccc(F)c(Cl)c2)c1` (centres unmarked) [Compound 171, N-(1-(3-chloro-4-fluorophenyl)-2-hydroxyethyl)-1-(5-methyl-2-(pyridin-3-ylamino)pyridin-4-yl)-1H-pyrrole-3-carboxamide], the IC50 (ERK2; HTRF) is reported as no more than 50 nM and the IC50 (ERK1; HTRF) is reported as less than 50 nM.
Work on `Cc1cnc(Nc2ccc(F)cc2)nc1-n1cnc(C(=O)NCc2cccc(Cl)c2CO)c1` [Example 262, N-(3-chloro-2-(hydroxymethyl)benzyl)-1-(2-((4-fluorophenyl)-amino)-5-methyl-pyrimidin-4-yl)-1H-imidazole-4-carbox amide] yielded an IC50 (ERK2; HTRF) of no more than 50 nM and an IC50 (ERK1; HTRF) of less than 50 nM.
Compound `Cc1cnc(NC2CCCCC2)nc1-n1cnc(C(=O)NC(CO)c2cccc(Cl)c2)c1` (centres unmarked) [Compound 226, N-(1-(3-chloro-phenyl)-2-hydroxy-ethyl)-1-(2-(cyclohexylamino)-5-methylpyrimidin-4-yl)-1H-imidazole-4-carboxamide] has an IC50 (ERK2; HTRF) of no more than 50 nM and an IC50 (ERK1; HTRF) of less than 50 nM.
Work on `Cc1cnc(NC2CCOc3ccccc32)nc1-n1cnc(C(=O)N[C@H](CO)c2cccc(Cl)c2)c1` (stereo partly drawn) [Compound 247, N-((S)-1-(3-chlorophenyl)-2-hydroxyethyl)-1-(2-(chroman-4-ylamino)-5-methylpyrimidin-4-yl)-1H-imidazole-4-carboxamide] yielded an IC50 (ERK2; HTRF) of no more than 50 nM and an IC50 (ERK1; HTRF) of less than 50 nM.
`Cc1cn(-c2ccnc(Nc3ccccc3)c2)cc1C(=O)N[C@H](CO)c1cccc(Cl)c1` [Compound 183, (S)-N-(1-(3-chlorophenyl)-2-hydroxyethyl)-4-methyl-1-(2-(phenylamino)pyridin-4-yl)-1H-pyrrole-3-carboxamide] showed an IC50 (ERK2; HTRF) of no more than 50 nM and an IC50 (ERK1; HTRF) of 50 to 100 nM.
In the case of `CC[C@@H](CO)Nc1cc(-n2ccc(C(=O)NC(CO)c3cccc(Cl)c3)c2)ccn1` (stereo partly drawn) [Compound 109, N-(1-(3-chloro-phenyl)-2-hydroxy-ethyl)-1-(2-(((S)-1-hydroxybutan-2-yl)amino)pyridin-4-yl)-1H-pyrrole-3-carboxamide], the IC50 (ERK2; HTRF) is reported as no more than 50 nM and the IC50 (ERK1; HTRF) is reported as less than 50 nM.
`Cc1cnc(Nc2ccc3c(c2)OCO3)nc1-n1ccc(C(=O)NC(CO)c2cccc(Cl)c2F)c1` (centres unmarked) [Compound 70, 1-(2-(benzo[d][1,3]dioxol-5-ylamino)-5-methylpyrimidin-4-yl)-N-(1-(3-chloro-2-fluorophenyl)-2-hydroxyethyl)-1H-pyrrole-3-carboxamide] gave an IC50 (ERK2; HTRF) of no more than 50 nM and an IC50 (ERK1; HTRF) of less than 50 nM.
`CC[C@H](CO)Nc1ncc(C)c(-n2ccc(C(=O)NC(CO)c3cccc(Cl)c3)c2)n1` (stereo partly drawn) [Compound 167, N-(1-(3-chloro-phenyl)-2-hydroxy-ethyl)-1-(2-(((R)-1-hydroxybutan-2-yl)amino)-5-methylpyrimidin-4-yl)-1H-pyrrole-3-carboxamide] gave an IC50 (ERK2; HTRF) of no more than 50 nM and an IC50 (ERK1; HTRF) of less than 50 nM.
`O=C(NC(CO)c1ccccc1)c1ccn(-c2ccnc(Nc3ccc(F)cc3)c2)c1` (centres unmarked) [Compound 84, 1-(2-((4-fluoro-phenyl)amino)pyridin-4-yl)-N-(2-hydroxy-1-phenyl-ethyl)-1H-pyrrole-3-carboxamide] gave an IC50 (ERK2; HTRF) of no more than 50 nM and an IC50 (ERK1; HTRF) of less than 50 nM.
`COc1ccc(Nc2ncc(C)c(-n3ccc(C(=O)NC(CO)c4ccccc4)c3)n2)cc1OCCN1CCN(C)CC1` (centres unmarked) [Compound 148, N-(2-hydroxy-1-phenylethyl)-1-(2-((4-methoxy-3-(2-(4-methylpiperazin-1-yl)ethoxy)-phenyl)amino)-5-methylpyrimidin-4-yl)-1H-pyrrole-3-carboxamide] gave an IC50 (ERK2; HTRF) of no more than 50 nM and an IC50 (ERK1; HTRF) of less than 50 nM.
For `Cc1cnc(NC2CCOC2)nc1-n1cnc(C(=O)NC(CN)c2cccc(Cl)c2)c1` (centres unmarked) [Compound 235, N-(2-amino-1-(3-chlorophenyl)ethyl)-1-(5-methyl-2-((tetrahydrofuran-3-yl)amino)pyrimidin-4-yl)-1H-imidazole-4-carboxamide], the IC50 (ERK2; HTRF) was no more than 50 nM and the IC50 (ERK1; HTRF) was less than 50 nM.
In the case of `Cc1cnc(NC2CC2)nc1-n1cc(NC(=O)N[C@H](CO)c2cccc(Cl)c2)cn1` [Compound 3, (S)-1-(1-(3-chlorophenyl)-2-hydroxyethyl)-3-(1-(2-(cyclopropyl-amino)-5-methyl-pyrimidin-4-yl)-1H-pyrazol-4-yl)urea], the IC50 (ERK2; HTRF) is reported as 50 to 100 nM and the IC50 (ERK1; HTRF) is reported as 50 to 100 nM.
Compound `Cc1cnc(N[C@H]2CCOC2)nc1-n1cnc(C(=O)NCc2cccc(Cl)c2C)c1` [Example 331, (S)-N-(3-chloro-2-methylbenzyl)-1-(5-methyl-2-((tetrahydrofuran-3-yl)amino)pyrimidin-4-yl)-1H-imidazole-4-carboxamide] has an IC50 (ERK2; HTRF biochemical assay) of no more than 50 nM and an IC50 (ERK1; HTRF biochemical assay) of less than 50 nM.
Work on `Cc1cnc(NC2CC2)nc1-n1cc(C(=O)N[C@H](CO)c2cccc(Cl)c2)cn1` [Compound 39, (S)-N-(1-(3-chlorophenyl)-2-hydroxyethyl)-1-(2-(cyclopropylamino)-5-methylpyrimidin-4-yl)-1H-pyrazole-4-carboxamide] yielded an IC50 (ERK2; HTRF) of no more than 50 nM and an IC50 (ERK1; HTRF) of 50 to 100 nM.
With `Cc1cnc(NC2CCS(=O)(=O)C2)nc1-n1cnc(C(=O)N[C@H](CO)c2cccc(Cl)c2)c1` (stereo partly drawn) [Compound 246, N-((S)-1-(3-chlorophenyl)-2-hydroxyethyl)-1-(2-((1,1-dioxido-tetrahydrothiophen-3-yl)amino)-5-methylpyrimidin-4-yl)-1H-imidazole-4-carboxamide] the IC50 (ERK2; HTRF) was no more than 50 nM and the IC50 (ERK1; HTRF) was less than 50 nM.
For `Cc1cnc(NC2CCOCC2)nc1-n1cnc(C(=O)NCc2cccc(Cl)c2CO)c1` [Compound 93, N-(3-chloro-2-(hydroxymethyl)benzyl)-1-(5-methyl-2-((tetrahydro-2H-pyran-4-yl)amino)pyrimidin-4-yl)-1H-imidazole-4-carboxamide], the IC50 (ERK2; HTRF) was no more than 50 nM and the IC50 (ERK1; HTRF) was less than 50 nM.
Compound `Cc1cnc(Nc2ccc(Oc3ccccc3)cc2)nc1-n1cnc(C(=O)NC(CN)c2cccc(Cl)c2)c1` (centres unmarked) [Compound 231, N-(2-amino-1-(3-chlorophenyl)ethyl)-1-(5-methyl-2-((4-phenoxyphenyl)amino)pyrimidin-4-yl)-1H-imidazole-4-carboxamide] has an IC50 (ERK2; HTRF) of no more than 50 nM and an IC50 (ERK1; HTRF) of less than 50 nM.
Work on `Cc1cnc(Nc2ccc(N3CCNCC3)cc2)cc1-n1ccc(C(=O)NC(CO)c2ccccc2)c1` (centres unmarked) [Compound 83, N-(2-hydroxy-1-phenylethyl)-1-(5-methyl-2-((4-(piperazin-1-yl)-phenyl)amino)-pyridin-4-yl)-1H-pyrrole-3-carboxamide] yielded an IC50 (ERK2; HTRF) of no more than 50 nM and an IC50 (ERK1; HTRF) of 100 to 500 nM.
Compound `Cc1cn(-c2nc(Nc3ccc(F)cc3)ncc2C)cc1C(=O)NC(CO)c1ccccc1` (centres unmarked) [Compound 108, 1-(2-((4-fluoro-phenyl)amino)-5-methylpyrimidin-4-yl)-N-(2-hydroxy-1-phenylethyl)-4-methyl-1H-pyrrole-3-carboxamide] has an IC50 (ERK2; HTRF) of no more than 50 nM and an IC50 (ERK1; HTRF) of less than 50 nM.
Compound `Cc1cnc(NC2CCOCC2)nc1-n1cnc(C(=O)NCc2cccc(Cl)c2CN)c1` [Example 285, N-(2-(aminomethyl)-3-chlorobenzyl)-1-(5-methyl-2-((tetrahydro-2H-pyran-4-yl)amino)-pyrimidin-4-yl)-1H-imidazole-4-carboxamide] has an IC50 (ERK2; HTRF) of no more than 50 nM and an IC50 (ERK1; HTRF) of less than 50 nM.
With `Cc1cnc(Nc2ccc3c(c2)OC(F)(F)O3)cc1-n1cnc(C(=O)NC(CN)Cc2ccccc2)c1` (centres unmarked) [Compound 99, N-(1-amino-3-phenylpropan-2-yl)-1-(2-((2,2-difluorobenzo[d] [1,3]dioxol-5-yl)amino)-5-methylpyridin-4-yl)-1H-imidazole-4-carboxamide] the IC50 (ERK2; HTRF) was 100 to 500 nM and the IC50 (ERK1; HTRF) was 100 to 500 nM.
`Cc1cnc(NC2CCOC2)cc1-n1ccc(C(=O)NC(CO)c2cccc(Cl)c2)c1` (centres unmarked) [Compound 165, N-(1-(3-chloro-phenyl)-2-hydroxyethyl)-1-(5-methyl-2-((tetrahydrofuran-3-yl)amino)pyridin-4-yl)-1H-pyrrole-3-carboxamide] was tested, and the IC50 (ERK2; HTRF) was no more than 50 nM and the IC50 (ERK1; HTRF) was less than 50 nM.
